In assay [1] the test system is Jurkat cells. In words: Whole proteomic analysis (mass spectrometry). Type of assay: cell-based, human. As to the method:
The cell cultivation was completed in a 60 mm plate; the number of cells accounted for roughly 30–40% of the orifice. We stimulated cells with 1 μM and 5 μM of NBU-2 and 0.1% DMSO. […] After 48 h, the cells were collected, about 200 μL of NP-40 Lysis Buffer containing phosphatase inhibitor and protease inhibitor was added, and the cells were lysed to release the proteins. Measure the protein concentration of each group of samples using the BCA protein quantification method. The disulfide bonds in the protein structure were reduced using TCEP and then alkylated with IAA. Samples were added to a centrifugal filtration unit with an ultrafiltration membrane, and proteins were digested using trypsin 2 times, the first time for 4 h and the second time overnight with the addition of an appropriate amount of trypsin. […] Samples were reconstituted using 0.1% formic acid, and approximately 1 μg of protein was taken for detection using mass spectrometry.
Mass spectrometry analysis was performed using an Orbitrap Fusion Lumos mass spectrometer (Thermo Fisher Scientific, Shanghai, China). Chromatographic separations were performed on an Acclaim PepMap C18 column using a 60 min linear gradient elution program: the proportion of mobile phase B (acetonitrile containing 0.1% formic acid) was increased from 2% to 35%, and the flow rate was maintained at 250 nL/min. […]

The test system of assay [2] is Jurkat cells. In words: Reactive oxygen species assay (DCFH-DA probe). Type of assay: cell-based, human. Conditions: 0.2, 1, 5 µM, 48 h; concentration-dependent. As to the method:
Cells were treated with 0.2 µM, 1 µM, 5 µM, and DMSO for 48 h. Then the probes were loaded using serum-free medium and incubated for 20 min at 37 °C in a cell incubator. Next, the cells were collected.

Assay [3] concerns Jurkat, human leukemic T cell line. In words: Anti-proliferation MTT / CCK-8 assay. The following applies: 72 h; for IC50: Homo sapiens, Jurkat. Type of assay: cell-based. As to the method:
(§1) These cells were purchased from the National Collection of Authenticated Cell Cultures (Shanghai, China).
(§2) The concentration of the cell suspension was adjusted to the appropriate concentration with fresh medium (the number of cells was about 30–40% of the bottom area of the well plate). 150 μL (about 1 × 10^4 cells) of prepared cell suspension containing different concentrations of NBU-2 were added to a 96-microtiter plate, and 3 replicate wells were set up for each concentration. If the cells were adherent, the cells were first allowed to grow overnight in 96 microtiter plates until the cells were adherent, and then the old medium was replaced with the drug-containing medium. The plates were incubated in a 5% CO2 cell incubator at 37 °C for 72 h. Then, 15 μL of MTT solution was added to each well, 100 μL of 10% SDS solution (pH = 2) was added after 4 h, and the plate was incubated at 37 °C with 5% CO2 overnight to fully dissolve the crystals.
(§3) The cells (about 1 × 10^4 cells) were treated with different concentrations of NBU-2 and DMSO control for different times (24 h, 48 h, 72 h), with 3 replicate wells for each concentration. Incubate at 37 °C in a 5% CO2 cell culture incubator. After a predetermined time, 10 μL of CCK-8 was added to each well and incubated for 2 h. The absorbance was measured at the excitation wavelength of 450 nm.

Assay [4] deals with HUVEC, human umbilical vein endothelial cells. In words: Toxicity on normal cells (MTT / CCK-8 assay). Type of assay: cell-based. How it is done: as §1, §2, §3
On the technique in general: Tetrazolium dyes change colour on reduction, which living cells bring about.

The text below walks through data of PMC12651750 (Cells, 2025).

Like-named read-outs stand apart in the source and are kept apart here.

On to `Cc1cccc2c(=O)c3c(NCCCCCC(=O)NO)ccc([N+](=O)[O-])c3[nH]c12` [NBU-2, N-hydroxy-6-((5-methyl-4-nitro-9-oxo-9,10-dihydroacridin-1-yl)amino)hexanamide], for which the “Total Akt protein (proteomics)” value in assay [1] (1 µM and 5 µM vs DMSO, p > 0.05) is listed as “did not show any significant change”. The “Expression of Rb (proteomics)” value in assay [1] (48 h) was “not affected”. In addition, the “Levels of reactive oxygen species relative to DMSO” value in assay [2] is “significantly increased”. Moreover, in assay [3] (CCK-8, 24 h, 48 h, various concentrations), the “Inhibitory effect on Jurkat cells over time” value was “concentration and time-dependent”. The IC50 in assay [3] (read-out: IC50 against Jurkat cells) came to 0.86 µM; in assay [3] (read-out: IC50 proliferation Jurkat, heading: IC50 proliferation Jurkat, mean ± SEM of three independent assays), 0.86 ± 0.13 µM; in assay [4] (72 h, read-out: IC50 anti-proliferative activity against HUVECs), 35.6 µM; in assay [4] (read-out: IC50 proliferation HUVEC (normal cells), heading: IC50 proliferation HUVEC, 72 h, mean ± SEM of three independent assays) it was 35.6 ± 7.3 µM.
